Results on two compounds are retold here after patent publication US20100210816A1, “NMDAR Biomarkers for Diagnosing and Treating Cerebral Ischemia” (priority 2006, published 2010).

The test system of test [1] is NR2 antibodies. The test can be described thus: NR2 antibody monitoring in three patients (minor CVA, TIA, ischemic stroke) given oral Trental. The class given is in vivo, human. As for the experimental part: The first case was a non-smoker who had previously undergone valve replacement surgery in 1987 and had received a coronary artery stent in 2002. The patient had been treated with coumudin since the first surgery. NR2 antibodies measured at base line were […] the 2 ng/ml cutoff. (FIG. 1). […] At the same time, the patient had complaints on chronic fatigue and numbness in the 4th and 5th digits of their left arm lasting quite a long period of time. […] Antibodies continued to decrease up to 6th mo. after treatment was initiated and remained below the cut off level more than 1 year after therapy.
The second patient was a apparently healthy person. Their blood assay for NR2 antibodies was performed initially on a voluntary basis as a healthy control. […] The patient used Plavix and Lipitor on daily basis as well.
The third patient was an non-smoker who had suffered ischemic stroke on May 28-29, 2002 after angioplasty. They had receiving coumadin, eardizem, atenolol, hytrin, lasix, and guaifinex when they entered the study.

For test [2] the following is noted: acute ischemic stroke; non-significant reduction; 95% CI: 0.41, 1.02; cited from earlier work.
For test [3] the following is noted: patients with TIA or minor CVA; cited from earlier work.
For test [4] the following is noted: large meta-analysis, BMJ 1994; cited from earlier work.
Test [5] is described as follows: TIA rate over 24 months of aspirin treatment follow up in individuals with DM/AS. It counts as in vivo, human. The following applies: 24 months follow up. As for the experimental part: (§1) In this study, serial measurements of blood levels of NR2 antibodies in an out-patient setting in individuals with diabetes mellitus (DM) and atherosclerosis (AS) who are at high risk for subsequent CVA were evaluated to establish whether this biomarker can be used to monitor the efficacy of aspirin treatment. Every person who participated in the study underwent neurological examination and computed tomography (CT) of the brain. The age of the 33 persons (17 male/16 female) ranged from 47-64 yrs (mean 55.7 yrs). Patients with documented 5-10 year history of DM/AS and normal neurological examination without a previous history of neurological event such as transient ischemic attack (TIA), or prolonged reversible ischemic neurological deficit or stroke were observed. Based on laboratory and clinical testing, all participants were at borderline glucose intolerance, with blood glucose levels of 119 to 132 mg/dL, and had complaints on fatigue, low concentration of attention, and numbness in digits of left or right hand.
Out of 22 individuals, 10 (6 male/4 female) were randomly assigned to a placebo group and the rest used daily over-counter aspirin in a dose of 325 mg which formed group 1 (Table 3). […]
NR2 antibodies were detected at a base level for each group before treatment was initiated (0 mo.) and then each following 6 months for two years. […]

Test [6] concerns NR2 antibodies. Kind of test: Serial blood NR2 antibody levels over 24 months of aspirin treatment follow up in individuals with DM/AS at high risk for CVA. The class given is in vivo, human. The following applies: for NR2 antibodies, 6 mo.: 6 months; for NR2 antibodies, 0 mo.: base level before treatment. As for the experimental part:
as §1
Out of 22 individuals, 10 (6 male/4 female) were randomly assigned to a placebo group and the rest used daily over-counter aspirin in a dose of 325 mg which formed group 1 (Table 3). None of people of group 1 developed the resistance to aspirin.
NR2 antibodies were detected at a base level for each group before treatment was initiated (0 mo.) and then each following 6 months for two years. […] A TIA event was documented in 1 patient from the placebo group. […] By the end of the study at 24 mo., two out of 9 persons suffered a TIA which developed into an acute ischemic stroke in one patient.

Setting [7] is: Group 1 (not aspirin-resistant, N=12), aspirin 325 mg daily.
[8] abbreviates: Group 2 (resistant to aspirin, N=9), aspirin 325 mg/day.

Each structure is given as a SMILES string.

As for `CC(=O)CCCCn1c(=O)c2c(ncn2C)n(C)c1=O` [Trental, pentoxifylline], the “Effect on level of NR2 antibodies” value is reported as “reduced the level of NR2 antibodies to the control level of healthy individuals” in test [1] (person after TIA, oral 200 mg twice a day for 30 days, FIG. 2); “reduced the level of NR2 antibodies to the cut off” in test [1] (person after ischemic stroke, oral 200 mg x 3 times a day for 60 days, FIG. 3); “reduced the level of NR2 antibodies by the end of treatment” in test [1] (person, minor CVA, oral 200 mg twice a day for 30 days, FIG. 1). Besides, in test [2], the “Odds ratio of early death” value is 0.64.

Turning to `CC(=O)Oc1ccccc1C(=O)O` [aspirin], in test [3], the “Reduction of the risk of TIA” value was 20%. For the same compound, the “Reduction of incidence of stroke, myocardial infarction, or vascular death” value in test [4] is reported as 25%. For the same compound, the TIA rate in test [5] (setting [7]) is 0; in test [5] (setting [8]), 2/9. Besides, the “NR2 antibodies, 6 mo.” value in test [6] (setting [7]) was found to be 2.51 ± 0.28 ng/mL; in test [6] (setting [8]), 3.22 ± 0.30 ng/mL. The results for the “NR2 antibodies, 0 mo.” value in test [6] (setting [7]) and in test [6] (setting [8]) were 3.05 ± 0.21 ng/mL and 2.87 ± 0.11 ng/mL, respectively. Besides, the “Change of NR2 antibody levels” value was “significantly reduced” in test [6] (Group 1, aspirin 325 mg daily, below cut off of 2 ng/ml, no CVA consequences) and “no improvement in NR2 antibodies levels” in test [6] (Group 2, patients resistant to aspirin, any time during the study).
